# System: ECHCG
# Experiment: Herbicidal action pre-emergence (PE)
# Assay type: in vivo, Echinochloa crus-galli
# Details: dosage 320 g/ha
row,SMILES,ECHCG
1,"Nc1nsc2c1NCN(CC1CCCCCC1)C2=O [Example I-59, 3-amino-6-(cycloheptylmethyl)-4,5-dihydroisothiazolo[4,5-d]pyrimidin-7-one]",100
2,Nc1nsc2c(=O)n(CC3CCCCC3)cnc12 [Example I-17],100
3,Nc1nsc2c(=O)n(CC3=CCCCC3)cnc12 [Example I-29],100
4,O=C(Nc1nsc2c(=O)n(CC3CCCCC3)cnc12)C(F)F [Example I-44],100
5,Nc1nsc2c1NCN(Cc1ccc(F)cc1F)C2=O [Example I-42],100
6,O=C(Nc1nsc2c(=O)n(Cc3ccc(F)cc3F)cnc12)C(F)(F)C(F)(F)F [Example I-78],100
7,O=C(Nc1nsc2c(=O)n(CC3CCCCC3)cnc12)C(F)(F)C(F)(F)Cl [Example I-68],100
8,CCC(=O)Nc1nsc2c(=O)n(Cc3ccc(F)cc3F)cnc12 [Example I-84],100

# System: SETVI
# Experiment: Herbicidal action pre-emergence (PE)
# Assay type: in vivo, Setaria viridis
# Details: dosage 320 g/ha
row,SMILES,SETVI
1,"Nc1nsc2c1NCN(CC1CCCCCC1)C2=O [Example I-59, 3-amino-6-(cycloheptylmethyl)-4,5-dihydroisothiazolo[4,5-d]pyrimidin-7-one]",100
2,Nc1nsc2c(=O)n(CC3CCCCC3)cnc12 [Example I-17],100
3,Nc1nsc2c(=O)n(CC3=CCCCC3)cnc12 [Example I-29],100
4,O=C(Nc1nsc2c(=O)n(CC3CCCCC3)cnc12)C(F)F [Example I-44],100
5,Nc1nsc2c1NCN(Cc1ccc(F)cc1F)C2=O [Example I-42],100
6,O=C(Nc1nsc2c(=O)n(Cc3ccc(F)cc3F)cnc12)C(F)(F)C(F)(F)F [Example I-78],100
7,O=C(Nc1nsc2c(=O)n(CC3CCCCC3)cnc12)C(F)(F)C(F)(F)Cl [Example I-68],100
8,CCC(=O)Nc1nsc2c(=O)n(Cc3ccc(F)cc3F)cnc12 [Example I-84],100

# System: AMARE
# Experiment: Herbicidal action pre-emergence (PE)
# Assay type: in vivo, Amaranthus retroflexus
# Details: dosage 320 g/ha
row,SMILES,AMARE
1,"Nc1nsc2c1NCN(CC1CCCCCC1)C2=O [Example I-59, 3-amino-6-(cycloheptylmethyl)-4,5-dihydroisothiazolo[4,5-d]pyrimidin-7-one]",100
2,Nc1nsc2c(=O)n(CC3CCCCC3)cnc12 [Example I-17],100
3,Nc1nsc2c(=O)n(CC3=CCCCC3)cnc12 [Example I-29],100
4,O=C(Nc1nsc2c(=O)n(CC3CCCCC3)cnc12)C(F)F [Example I-44],100
5,Nc1nsc2c1NCN(Cc1ccc(F)cc1F)C2=O [Example I-42],100
6,O=C(Nc1nsc2c(=O)n(Cc3ccc(F)cc3F)cnc12)C(F)(F)C(F)(F)F [Example I-78],100
7,O=C(Nc1nsc2c(=O)n(CC3CCCCC3)cnc12)C(F)(F)C(F)(F)Cl [Example I-68],100
8,CCC(=O)Nc1nsc2c(=O)n(Cc3ccc(F)cc3F)cnc12 [Example I-84],100

# System: VIOTR
# Experiment: Herbicidal action pre-emergence (PE)
# Assay type: in vivo, Viola tricolor
# Details: dosage 320 g/ha
row,SMILES,VIOTR
1,"Nc1nsc2c1NCN(CC1CCCCCC1)C2=O [Example I-59, 3-amino-6-(cycloheptylmethyl)-4,5-dihydroisothiazolo[4,5-d]pyrimidin-7-one]",100
2,Nc1nsc2c(=O)n(CC3CCCCC3)cnc12 [Example I-17],100
3,Nc1nsc2c(=O)n(CC3=CCCCC3)cnc12 [Example I-29],100
4,O=C(Nc1nsc2c(=O)n(CC3CCCCC3)cnc12)C(F)F [Example I-44],100
5,Nc1nsc2c1NCN(Cc1ccc(F)cc1F)C2=O [Example I-42],100
6,O=C(Nc1nsc2c(=O)n(Cc3ccc(F)cc3F)cnc12)C(F)(F)C(F)(F)F [Example I-78],100
7,O=C(Nc1nsc2c(=O)n(CC3CCCCC3)cnc12)C(F)(F)C(F)(F)Cl [Example I-68],100
8,CCC(=O)Nc1nsc2c(=O)n(Cc3ccc(F)cc3F)cnc12 [Example I-84],100

# System: MATIN
# Experiment: Herbicidal action pre-emergence (PE)
# Assay type: in vivo, Matricaria inodora
# Details: dosage 320 g/ha
row,SMILES,MATIN
1,"Nc1nsc2c1NCN(CC1CCCCCC1)C2=O [Example I-59, 3-amino-6-(cycloheptylmethyl)-4,5-dihydroisothiazolo[4,5-d]pyrimidin-7-one]",100
2,Nc1nsc2c(=O)n(CC3CCCCC3)cnc12 [Example I-17],100
3,Nc1nsc2c(=O)n(CC3=CCCCC3)cnc12 [Example I-29],100
4,O=C(Nc1nsc2c(=O)n(CC3CCCCC3)cnc12)C(F)F [Example I-44],100
5,Nc1nsc2c1NCN(Cc1ccc(F)cc1F)C2=O [Example I-42],100
6,O=C(Nc1nsc2c(=O)n(Cc3ccc(F)cc3F)cnc12)C(F)(F)C(F)(F)F [Example I-78],100
7,O=C(Nc1nsc2c(=O)n(CC3CCCCC3)cnc12)C(F)(F)C(F)(F)Cl [Example I-68],100
8,CCC(=O)Nc1nsc2c(=O)n(Cc3ccc(F)cc3F)cnc12 [Example I-84],100

# System: POLCO
# Experiment: Herbicidal action pre-emergence (PE)
# Assay type: in vivo, Polygonum convolvulus
# Details: dosage 320 g/ha
row,SMILES,POLCO
1,"Nc1nsc2c1NCN(CC1CCCCCC1)C2=O [Example I-59, 3-amino-6-(cycloheptylmethyl)-4,5-dihydroisothiazolo[4,5-d]pyrimidin-7-one]",100
2,Nc1nsc2c(=O)n(CC3CCCCC3)cnc12 [Example I-17],100
3,Nc1nsc2c(=O)n(CC3=CCCCC3)cnc12 [Example I-29],100
4,O=C(Nc1nsc2c(=O)n(CC3CCCCC3)cnc12)C(F)F [Example I-44],100
5,Nc1nsc2c1NCN(Cc1ccc(F)cc1F)C2=O [Example I-42],100
6,O=C(Nc1nsc2c(=O)n(Cc3ccc(F)cc3F)cnc12)C(F)(F)C(F)(F)F [Example I-78],100
7,O=C(Nc1nsc2c(=O)n(CC3CCCCC3)cnc12)C(F)(F)C(F)(F)Cl [Example I-68],100
8,CCC(=O)Nc1nsc2c(=O)n(Cc3ccc(F)cc3F)cnc12 [Example I-84],100

# System: SETVI
# Experiment: Herbicidal action post-emergence (PO)
# Assay type: in vivo, Setaria viridis
# Details: dosage 320 g/ha
row,SMILES,SETVI
1,"Nc1nsc2c1NCN(CC1CCCCCC1)C2=O [Example I-59, 3-amino-6-(cycloheptylmethyl)-4,5-dihydroisothiazolo[4,5-d]pyrimidin-7-one]",100
2,Nc1nsc2c(=O)n(CC3CCCCC3)cnc12 [Example I-17],100
3,Nc1nsc2c(=O)n(CC3=CCCCC3)cnc12 [Example I-29],100
4,Nc1nsc2c1NCN(Cc1ccc(F)cc1F)C2=O [Example I-42],100
5,O=C(Nc1nsc2c(=O)n(Cc3ccc(F)cc3F)cnc12)C(F)(F)C(F)(F)F [Example I-78],100
6,O=C(Nc1nsc2c(=O)n(CC3CCCCC3)cnc12)C(F)(F)C(F)(F)Cl [Example I-68],100
7,CCC(=O)Nc1nsc2c(=O)n(Cc3ccc(F)cc3F)cnc12 [Example I-84],100

# System: AMARE
# Experiment: Herbicidal action post-emergence (PO)
# Assay type: in vivo, Amaranthus retroflexus
# Details: dosage 320 g/ha
row,SMILES,AMARE
1,"Nc1nsc2c1NCN(CC1CCCCCC1)C2=O [Example I-59, 3-amino-6-(cycloheptylmethyl)-4,5-dihydroisothiazolo[4,5-d]pyrimidin-7-one]",100
2,Nc1nsc2c(=O)n(CC3CCCCC3)cnc12 [Example I-17],100
3,Nc1nsc2c(=O)n(CC3=CCCCC3)cnc12 [Example I-29],100
4,O=C(Nc1nsc2c(=O)n(CC3CCCCC3)cnc12)C(F)F [Example I-44],100
5,Nc1nsc2c1NCN(Cc1ccc(F)cc1F)C2=O [Example I-42],100
6,O=C(Nc1nsc2c(=O)n(Cc3ccc(F)cc3F)cnc12)C(F)(F)C(F)(F)F [Example I-78],100
7,O=C(Nc1nsc2c(=O)n(CC3CCCCC3)cnc12)C(F)(F)C(F)(F)Cl [Example I-68],100
8,CCC(=O)Nc1nsc2c(=O)n(Cc3ccc(F)cc3F)cnc12 [Example I-84],100

# System: VIOTR
# Experiment: Herbicidal action post-emergence (PO)
# Assay type: in vivo, Viola tricolor
# Details: dosage 320 g/ha
row,SMILES,VIOTR
1,"Nc1nsc2c1NCN(CC1CCCCCC1)C2=O [Example I-59, 3-amino-6-(cycloheptylmethyl)-4,5-dihydroisothiazolo[4,5-d]pyrimidin-7-one]",100
2,Nc1nsc2c(=O)n(CC3CCCCC3)cnc12 [Example I-17],100
3,Nc1nsc2c(=O)n(CC3=CCCCC3)cnc12 [Example I-29],100
4,O=C(Nc1nsc2c(=O)n(CC3CCCCC3)cnc12)C(F)F [Example I-44],100
5,Nc1nsc2c1NCN(Cc1ccc(F)cc1F)C2=O [Example I-42],100
6,O=C(Nc1nsc2c(=O)n(Cc3ccc(F)cc3F)cnc12)C(F)(F)C(F)(F)F [Example I-78],100
7,O=C(Nc1nsc2c(=O)n(CC3CCCCC3)cnc12)C(F)(F)C(F)(F)Cl [Example I-68],100
8,CCC(=O)Nc1nsc2c(=O)n(Cc3ccc(F)cc3F)cnc12 [Example I-84],100

# System: ABUTH
# Experiment: Herbicidal action post-emergence (PO)
# Assay type: in vivo, Abutilon theophrasti
# Details: dosage 320 g/ha
row,SMILES,ABUTH
1,"Nc1nsc2c1NCN(CC1CCCCCC1)C2=O [Example I-59, 3-amino-6-(cycloheptylmethyl)-4,5-dihydroisothiazolo[4,5-d]pyrimidin-7-one]",100
2,Nc1nsc2c(=O)n(CC3CCCCC3)cnc12 [Example I-17],90
3,Nc1nsc2c(=O)n(CC3=CCCCC3)cnc12 [Example I-29],80
4,O=C(Nc1nsc2c(=O)n(CC3CCCCC3)cnc12)C(F)F [Example I-44],100
5,Nc1nsc2c1NCN(Cc1ccc(F)cc1F)C2=O [Example I-42],80
6,O=C(Nc1nsc2c(=O)n(Cc3ccc(F)cc3F)cnc12)C(F)(F)C(F)(F)F [Example I-78],80
7,O=C(Nc1nsc2c(=O)n(CC3CCCCC3)cnc12)C(F)(F)C(F)(F)Cl [Example I-68],100
8,CCC(=O)Nc1nsc2c(=O)n(Cc3ccc(F)cc3F)cnc12 [Example I-84],100

# System: PHBPU
# Experiment: Herbicidal action post-emergence (PO)
# Assay type: in vivo, Pharbitis purpurea
# Details: dosage 320 g/ha
row,SMILES,PHBPU
1,"Nc1nsc2c1NCN(CC1CCCCCC1)C2=O [Example I-59, 3-amino-6-(cycloheptylmethyl)-4,5-dihydroisothiazolo[4,5-d]pyrimidin-7-one]",100
2,Nc1nsc2c(=O)n(CC3CCCCC3)cnc12 [Example I-17],100
3,Nc1nsc2c(=O)n(CC3=CCCCC3)cnc12 [Example I-29],80
4,Nc1nsc2c1NCN(Cc1ccc(F)cc1F)C2=O [Example I-42],100
5,O=C(Nc1nsc2c(=O)n(Cc3ccc(F)cc3F)cnc12)C(F)(F)C(F)(F)F [Example I-78],100
6,O=C(Nc1nsc2c(=O)n(CC3CCCCC3)cnc12)C(F)(F)C(F)(F)Cl [Example I-68],100
7,CCC(=O)Nc1nsc2c(=O)n(Cc3ccc(F)cc3F)cnc12 [Example I-84],100

# System: Pyrenophora teres
# Experiment: In vivo preventive test on Pyrenophora teres (net blotch on barley)
# Details: 100 ppm of active ingredient; barley plants; evaluated 14 days after the inoculation
# Protocol: 5) Example: In Vivo Preventive Test on Pyrenophora teres (Net Blotch on Barley) [table] The active ingredients were made soluble and homogenized in a mixture of Dimethyl sulfoxide/Acetone//Tween® 80 and then diluted in water to the desired concentration. The young plants of barley were treated by spraying the active ingredient prepared as described above. Control plants were treated only with an aqueous solution of Acetone/Dimethyl sulfoxide/Tween® 80. After 24 hours, the plants were contaminated by spraying the leaves with an aqueous suspension of Pyrenophora teres spores.
row,SMILES,efficacy
1,O=C(Nc1nsc2c(=O)n(CC3CCCCC3)cnc12)C(F)F [Example I-44],at least 70%

# From patent US20200123175A1, “NOVEL ISOTHIAZOLO-BASED BICYCLES, PROCESSES FOR THEIR PREPARATION AND THEIR USE AS HERBICIDES AND/OR PLANT GROWTH REGULATORS” (Bayer CropScience Aktiengesellschaft, priority 2017, published 2020)
